Test results as given in patent US20100204203A1, “Chemical Compounds 637: Pyridopyrimidinediones as PDE4 Inhibitors” (priority 2007, published 2010).

molecular target: recombinant Human Phosphodiesterase B2 (PDE4B2) (Homo sapiens, UniProt Q07343); assay: Human Phosphodiesterase B2 Radiometric Assay (yttrium silicate SPA beads, [3H]cyclic AMP); type: biochemical; conditions: recombinant human PDE4B2, radiometric SPA assay, 8 nM [3H]cyclic AMP; read-out: PDE4B2 pIC50 (converted)
Method in brief: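 Read-out is scintillation proximity: yttrium silicate beads (with 18 mM ZnSO4, added to stop the reaction) bind 5′AMP formed from 8 nM [3H]cAMP over 20 min. Beforehand, compound and 0.1 mg/mL enzyme were preincubated 30 min at 30 °C in pH 7.5 HEPES buffer with MgCl2, EGTA and Brij 35; pIC50 values were curve-fitted.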

recombinant Human Phosphodiesterase B2 (PDE4B2), sequence (Q07343 1-564 isoform Q07343-2): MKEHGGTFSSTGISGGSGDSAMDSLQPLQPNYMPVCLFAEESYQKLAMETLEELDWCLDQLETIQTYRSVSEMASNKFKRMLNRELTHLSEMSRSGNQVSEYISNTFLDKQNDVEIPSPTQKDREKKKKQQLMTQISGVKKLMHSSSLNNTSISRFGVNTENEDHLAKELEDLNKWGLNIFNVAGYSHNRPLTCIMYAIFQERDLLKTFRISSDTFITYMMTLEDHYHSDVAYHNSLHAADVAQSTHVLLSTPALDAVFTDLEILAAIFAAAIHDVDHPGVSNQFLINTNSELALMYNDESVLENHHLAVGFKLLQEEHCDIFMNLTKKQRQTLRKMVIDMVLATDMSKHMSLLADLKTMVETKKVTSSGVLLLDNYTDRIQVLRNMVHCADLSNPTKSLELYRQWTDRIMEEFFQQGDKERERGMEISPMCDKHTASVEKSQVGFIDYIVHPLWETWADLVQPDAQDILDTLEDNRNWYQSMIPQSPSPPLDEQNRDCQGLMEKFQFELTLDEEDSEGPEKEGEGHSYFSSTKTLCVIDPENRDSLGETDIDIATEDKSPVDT

Row | IC50 | Compound
1 | 0.126 nM | CC(C)NCCc1ccc(-c2cccc(-n3c(=O)n([C@H]4CC[C@@H](NC(=O)c5cn6cc(F)ccc6n5)CC4)c(=O)c4cc(F)cnc43)c2)cc1 [Example 98, 6-fluoro-N-{cis-4-[6-fluoro-1-{4′-[2-(isopropylamino)ethyl]biphenyl-3-yl}-2,4-dioxo-1,4-dihydropyrido[2,3-d]pyrimidin-3(2H)-yl]cyclohexyl}imidazo[1,2-a]pyridine-2-carboxamide]
2 | 0.126 nM | CN(C)CCc1ccc(-c2cccc(-n3c(=O)n([C@H]4CC[C@@H](NC(=O)c5cn6cc(F)ccc6n5)CC4)c(=O)c4cc(F)cnc43)c2)cc1 [Example 99, N-{cis-4-[1-{4′-[2-(dimethylamino)ethyl]biphenyl-3-yl}-6-fluoro-2,4-dioxo-1,4-dihydropyrido[2,3-d]pyrimidin-3(2H)-yl]cyclohexyl}-6-fluoroimidazo[1,2-a]pyridine-2-carboxamide]
3 | 0.00794 nM | CN1CCN(CCc2ccc(-c3cccc(-n4c(=O)n([C@H]5CC[C@@H](NC(=O)c6cn7cc(F)ccc7n6)CC5)c(=O)c5cc(F)cnc54)c3)cc2)CC1 [Example 100, 6-fluoro-N-{cis-4-[6-fluoro-1-{4′-[2-(4-methylpiperazin-1-yl)ethyl]biphenyl-3-yl}-2,4-dioxo-1,4-dihydropyrido[2,3-d]pyrimidin-3(2H)-yl]cyclohexyl}imidazo[1,2-a]pyridine-2-carboxamide]
4 | 0.1 nM | CN(CCc1ccc(-c2cccc(-n3c(=O)n([C@H]4CC[C@@H](NC(=O)c5cn6cc(F)ccc6n5)CC4)c(=O)c4cc(F)cnc43)c2)cc1)C(C)(C)C [Example 101, N-{cis-4-[1-(4′-{2-[tert-butyl(methyl)amino]ethyl}biphenyl-3-yl)-6-fluoro-2,4-dioxo-1,4-dihydropyrido[2,3-d]pyrimidin-3(2H)-yl]cyclohexyl}-6-fluoroimidazo[1,2-a]pyridine-2-carboxamide]
5 | 0.00794 nM | O=C(N[C@H]1CC[C@@H](n2c(=O)c3cc(F)cnc3n(-c3cccc(-c4ccc(CCN5CCNCC5)cc4)c3)c2=O)CC1)c1cn2cc(F)ccc2n1 [Example 102, 6-fluoro-N-{cis-4-[6-fluoro-2,4-dioxo-1-[4′-(2-piperazin-1-ylethyl)biphenyl-3-yl]-1,4-dihydropyrido[2,3-d]pyrimidin-3 (2H)-yl]cyclohexyl}imidazo[1,2-c]pyridine-2-carboxamide]
6 | 0.00158 nM | O=C(N[C@H]1CC[C@@H](n2c(=O)c3cc(F)cnc3n(-c3cccc(-c4ccc(O)cc4CN4CCOCC4)c3)c2=O)CC1)c1cn2cc(F)ccc2n1 [Example 103, 6-fluoro-N-{cis-4-[6-fluoro-1-[4′-hydroxy-2′-(morpholin-4-ylmethyl)biphenyl-3-yl]-2,4-dioxo-1,4-dihydropyrido[2,3-d]pyrimidin-3(2H)-yl]cyclohexyl}imidazo[1,2-a]pyridine-2-carboxamide]
7 | 0.00316 nM | CN(C)Cc1cc(O)ccc1-c1cccc(-n2c(=O)n([C@H]3CC[C@@H](NC(=O)c4cn5cc(F)ccc5n4)CC3)c(=O)c3cc(F)cnc32)c1 [Example 104, N-{cis-4-[1-{2′-[(dimethylamino)methyl]-4′-hydroxybiphenyl-3-yl}-6-fluoro-2,4-dioxo-1,4-dihydropyrido[2,3-d]pyrimidin-3(2H)-yl]cyclohexyl}-6-fluoroimidazo[1,2-a]pyridine-2-carboxamide]
8 | 0.0251 nM | CC(C)(C)OC(=O)N1CCN(CC(=O)N[C@H]2CC[C@@H](n3c(=O)c4cc(F)cnc4n(-c4cccc(-c5ccccc5)c4)c3=O)CC2)CC1 [Example 105, tert-butyl 4-(2-{[cis-4-(1-biphenyl-3-yl-6-fluoro-2,4-dioxo-1,4-dihydropyrido[2,3-d]pyrimidin-3(2H)-yl)cyclohexyl]amino}-2-oxoethyl)piperazine-1-carboxylate]
9 | 3.16 nM | O=C(CN1CCNCC1)N[C@H]1CC[C@@H](n2c(=O)c3cc(F)cnc3n(-c3cccc(-c4ccccc4)c3)c2=O)CC1 [Example 106, N-[cis-4-(1-biphenyl-3-yl-6-fluoro-2,4-dioxo-1,4-dihydropyrido[2,3-d]pyrimidin-3(2H)-yl)cyclohexyl]-2-piperazin-1-ylacetamide]
10 | 100 nM | O=c1c2cc(F)cnc2n(-c2cccc(-c3ccccc3)c2)c(=O)n1[C@@H]1CCNC1 [Example 107, 1-biphenyl-3-yl-6-fluoro-3-[(3R)-pyrrolidin-3-yl]pyrido[2,3-d]pyrimidine-2,4(1H,3H)-dione]
11 | 0.00794 nM | Cc1cc(C(=O)N[C@H]2CC[C@@H](n3c(=O)c4cc(F)cnc4n(-c4cccc(-c5ccc(CN6CCOCC6)cc5)c4)c3=O)CC2)nn1C [Example 108, N-{cis-4-[6-fluoro-1-[4′-(morpholin-4-ylmethyl)biphenyl-3-yl]-2,4-dioxo-1,4-dihydropyrido[2,3-d]pyrimidin-3(2H)-yl]cyclohexyl}-1,5-dimethyl-1H-pyrazole-3-carboxamide]
12 | 0.0158 nM | O=C(N[C@H]1CC[C@@H](n2c(=O)c3cc(F)cnc3n(-c3cccc(-c4ccc(CN5CCOCC5)cc4)c3)c2=O)CC1)c1cn2c(n1)CCCC2 [Example 109, N-{cis-4-[6-fluoro-1-[4′-(morpholin-4-ylmethyl)biphenyl-3-yl]-2,4-dioxo-1,4-dihydropyrido[2,3-d]pyrimidin-3(2H)-yl]cyclohexyl}-5,6,7,8-tetrahydroimidazo[1,2-a]pyridine-2-carboxamide]
13 | 0.00794 nM | CN(C)CCN(C)Cc1ccc(-c2cccc(-n3c(=O)n([C@H]4CC[C@@H](NC(=O)C5(N(C)C)CC5)CC4)c(=O)c4cc(F)cnc43)c2)cc1 [Example 110, 1-(dimethylamino)-N-{cis-4-[1-(4′-{[[2-(dimethylamino)ethyl](methyl)amino]methyl}biphenyl-3-yl)-6-fluoro-2,4-dioxo-1,4-dihydropyrido[2,3-d]pyrimidin-3(2H)-yl]cyclohexyl}cyclopropanecarboxamide]
14 | 0.0126 nM | Cc1cccc2nc(C(=O)N[C@H]3CC[C@@H](n4c(=O)c5cc(F)cnc5n(-c5cccc(-c6ccc(CN7CCNCC7)cc6)c5)c4=O)CC3)cn12 [Example 111, N-{cis-4-[6-fluoro-2,4-dioxo-1-[4′-(piperazin-1-ylmethyl)biphenyl-3-yl]-1,4-dihydropyrido[2,3-d]pyrimidin-3(2H)-yl]cyclohexyl}-5-methylimidazo[1,2-a]pyridine-2-carboxamide]
15 | 0.0501 nM | Cc1cc(C(=O)N[C@H]2CC[C@@H](n3c(=O)c4cc(F)cnc4n(-c4cccc(-c5ccc(CN6CCCCC6)cc5)c4)c3=O)CC2)nn1C [Example 112, N-{cis-4-[6-fluoro-2,4-dioxo-1-[4′-(piperidin-1-ylmethyl)biphenyl-3-yl]-1,4-dihydropyrido[2,3-d]pyrimidin-3(2H)-yl]cyclohexyl}-1,5-dimethyl-1H-pyrazole-3-carboxamide]
16 | 0.0126 nM | Cc1cc(C(=O)N[C@H]2CC[C@@H](n3c(=O)c4cc(F)cnc4n(-c4cccc(-c5ccc(CN(C)CCN(C)C)cc5)c4)c3=O)CC2)nn1C [Example 113, N-{cis-4-[1-(4′-{[[2-(dimethylamino)ethyl](methyl)amino]methyl}biphenyl-3-yl)-6-fluoro-2,4-dioxo-1,4-dihydropyrido[2,3-d]pyrimidin-3(2H)-yl]cyclohexyl}-1,5-dimethyl-1H-pyrazole-3-carboxamide]
17 | 0.00794 nM | Cc1cc(C(=O)N[C@H]2CC[C@@H](n3c(=O)c4cc(F)cnc4n(-c4cccc(-c5ccc(CN6CCN(C(C)C)CC6)cc5)c4)c3=O)CC2)nn1C [Example 114, N-{cis-4-[6-fluoro-1-{4′-[(4-isopropylpiperazin-1-yl)methyl]biphenyl-3-yl}-2,4-dioxo-1,4-dihydropyrido[2,3-d]pyrimidin-3(2H)-yl]cyclohexyl}-1,5-dimethyl-1H-pyrazole-3-carboxamide]
18 | 0.0398 nM | Cc1cc(C(=O)N[C@H]2CC[C@@H](n3c(=O)c4cc(F)cnc4n(-c4cccc(-c5ccc(CNCCC(C)C)cc5)c4)c3=O)CC2)nn1C [Example 115, N-{cis-4-[6-fluoro-1-(4′-{[(3-methylbutyl)amino]methyl}biphenyl-3-yl)-2,4-dioxo-1,4-dihydropyrido[2,3-d]-pyrimidin-3(2H)-yl]cyclohexyl}-1,5-dimethyl-1H-pyrazole-3-carboxamide]
19 | 0.0501 nM | Cc1cc(C(=O)N[C@H]2CC[C@@H](n3c(=O)c4cc(F)cnc4n(-c4cccc(-c5ccc(CN6CCC(CO)CC6)cc5)c4)c3=O)CC2)nn1C [Example 116, N-{cis-4-[6-fluoro-1-(4′-{[4-(hydroxymethyl)piperidin-1-yl]methyl}biphenyl-3-yl)-2,4-dioxo-1,4-dihydropyrido[2,3-d]pyrimidin-3(2H)-yl]cyclohexyl}-1,5-dimethyl-1H-pyrazole-3-carboxamide]
20 | 0.126 nM | COCCNCc1ccc(-c2cccc(-n3c(=O)n([C@H]4CC[C@@H](NC(=O)c5cc(C)n(C)n5)CC4)c(=O)c4cc(F)cnc43)c2)cc1 [Example 117, N-{cis-4-[6-fluoro-1-(4′-{[(2-methoxyethyl)amino]methyl}biphen-yl-3-yl)-2,4-dioxo-1,4-dihydropyrido[2,3-d]pyrimidin-3(2H)-yl]cyclohexyl}-1,5-dimethyl-1H-pyrazole-3-carboxamide]
21 | 0.0251 nM | Cc1cc(C(=O)N[C@H]2CC[C@@H](n3c(=O)c4cc(F)cnc4n(-c4cccc(-c5ccc(CN6CCC(N7CCCC7)CC6)cc5)c4)c3=O)CC2)nn1C [Example 118, N-{cis-4-[6-fluoro-2,4-dioxo-1-{4′-[(4-pyrrolidin-1-ylpiperidin-1-yl)methyl]biphenyl-3-yl}-1,4-dihydropyrido[2,3-d]pyrimidin-3(2H)-yl]cyclohexyl}-1,5-dimethyl-1H-pyrazole-3-carboxamide]
22 | 0.316 nM | O=C(N[C@H]1CC[C@@H](n2c(=O)c3cc(F)cnc3n(-c3cccc(-c4ccc(CN5CCCCC5)cc4)c3)c2=O)CC1)c1cn2c(n1)CCCC2 [Example 119, N-{cis-4-[6-fluoro-2,4-dioxo-1-[4′-(piperidin-1-ylmethyl)biphenyl-3-yl]-1,4-dihydropyrido[2,3-d]pyrimidin-3(2H)-yl]cyclohexyl}-5,6,7,8-tetrahydroimidazo[1,2-a]pyridine-2-carboxamide]
